Data taken from patent US5147876A, “2,6-di,2,4,6-, 2,5,6-tri and 2,4,5,6-tetra-substituted pyrimidines, their pharmaceutically acceptable salts, pharmaceutical compositions containing same and their use in the treatment of neurological diseases” (Mitsui Petrochemical Industries, Ltd., priority 1988, dated 1992).
Counter-ions that a name gives are not always drawn.

What was measured:
[1] = tested on: neuro-2a (mouse neuroblastoma cells); experiment: Action on neuro-2a: proportion of cells containing outgrown neurites; format: cell-based; details: mean ± S.D.
Outline: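 Read-out is the percentage of neurite-bearing cells (neurite ≥2× long cell diameter), counted microscopically over more than 200 cells per well. Before fixation and staining, neuro-2a cells (1,000/well, DMEM + 10% FCS) were cultured for one day at 37 °C; up to six compound concentrations, three runs each.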

[2] = tested on: NS-20Y (mouse neuroblastoma cells); experiment: Activity on NS-20Y cells: appearance of neurites; format: cell-based
Outline: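 Mouse neuroblastoma NS-20Y cells were grown in polyornithine-coated dishes in DMEM with 10 % FCS, 100 units/ml penicillin G sodium and 100 micrograms/ml streptomycin sulfate, at 37° C under 5 % carbon dioxide, and exposed to compound. Cells were fixed with 4 % glutaraldehyde, stained with 0.05 % methylene blue, and the fraction bearing neurites at least twice the cell's long diameter was counted microscopically.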

Acute toxicity on mice = format: in vivo; details: mouse, in vivo, ip, 24 hours after administration; read-out: Estimated LD50
Protocol: (§1) The acute toxicity of the compounds of the invention was examined by the following method.
(§2) Male ddy-strain 5-week old mice, 4-6- per group, were used as experimental animals. Each of the compounds was intraperitoneally (i.p.), and the toxicity of the compound was assessed 24 hours after the administration.

mice = experiment: Acute toxicity on mice; format: in vivo; details: 24 hours after administration
Protocol: as §1, §2

Row | SMILES | Number of cells having neurites with a length at least two times the diameter of each cell/total number of cells ([1]; 0.3 mM) [%] | Number of cells having neurites with a length at least two times the diameter of each cell/total number of cells ([1]; 1 mM) [%] | Number of cells in which neurites appeared/total number of cells ([2]; 24 hours, 0.1 mM) | Number of cells in which neurites appeared/total number of cells ([2]; 48 hours, 0.1 mM) | LD50 at 24 h (Acute toxicity on mice) [mg/kg] | Number of cells having neurites with a length at least two times the diameter of each cell/total number of cells ([1]; 0.03 mM) [%] | Number of cells having neurites with a length at least two times the diameter of each cell/total number of cells ([1]; 0.1 mM) [%] | also measured
1 | Cc1cc(N(C)C(=O)c2ccccc2)nc(N2CCC(c3ccccc3)CC2)n1 [Compound 400] | 11.4 ± 4.3 | 16.0 ± 2.7 | 9/50 | 3/50 | 500 to 1000 |  |  | Number of cells in which neurites appeared/total number of cells ([2]; 24 hours, 0.4 mM): 30/53; Number of cells in which neurites appeared/total number of cells ([2]; 48 hours, 0.4 mM): 3/48
2 | CN(C(=O)c1ccc(-c2ccccc2)cc1)c1ccnc(N2CCC(c3ccccc3)CC2)n1 [Compound 288] | 3.8 ± 1.9 | 5.1 ± 2.7 | 2/52 | 2/50 | 500 to 1000 | 1.4 ± 0.1 | 3.3 ± 0.9 | 
3 | CC(=O)N(C)c1ccnc(N2CCCCC2)n1 [Compound 128] | 9.9 ± 0.6 | 19.8 ± 2.8 |  |  | > 1000 |  |  | Number of cells having neurites with a length at least two times the diameter of each cell/total number of cells ([1]; 0.5 mM): 9.1 ± 0.7%; Number of cells having neurites with a length at least two times the diameter of each cell/total number of cells ([1]; 2 mM): 14.3 ± 2.4%; Number of cells in which neurites appeared/total number of cells ([2]; 24 hours, 0.3 mM): 4/49; Number of cells in which neurites appeared/total number of cells ([2]; 24 hours, 1.0 mM): 23/55; Number of cells in which neurites appeared/total number of cells ([2]; 48 hours, 0.3 mM): 31/50; Number of cells in which neurites appeared/total number of cells ([2]; 48 hours, 0.5 mM): 21/50
4 | O=C(c1ccccc1)N(Cc1ccccc1)c1ccnc(N2CCC(c3ccccc3)CC2)n1 [Compound 192] | 12.1 ± 1.5 | 14.6 ± 1.0 |  |  | 500 to 1000 |  |  | Number of cells in which neurites appeared/total number of cells ([2]; 24 hours, 0.4 mM): 23/50; Number of cells in which neurites appeared/total number of cells ([2]; 48 hours, 0.4 mM): 4/50
5 | CC(C)C(=O)N(C)c1ccnc(N2CCC(c3ccccc3)CC2)n1 [Compound 216] |  |  |  |  | > 1000 | 6.3 ± 2.4 | 26.6 ± 5.6 | Number of cells having neurites with a length at least two times the diameter of each cell/total number of cells ([1]; 0.01 mM): 3.7 ± 0.4%; Number of cells in which neurites appeared/total number of cells ([2]; 24 hours, 0.025 mM): 3/49; Number of cells in which neurites appeared/total number of cells ([2]; 48 hours, 0.025 mM): 24/50; Number of cells in which neurites appeared/total number of cells ([2]; 48 hours, 0.05 mM): 20/50
6 | CN(C(=O)c1ccc(Cl)cc1)c1ccnc(N2CCC(c3ccccc3)CC2)n1 [Compound 240] | 33.2 ± 0.9 | 30.9 ± 5.9 |  |  | > 1000 | 19.8 ± 5.7 | 38.7 ± 4.5 | Number of cells in which neurites appeared/total number of cells ([2]; 24 hours, 0.2 mM): 4/50; Number of cells in which neurites appeared/total number of cells ([2]; 48 hours, 0.2 mM): 3/50
7 | CC(=O)N(C)c1ccnc(N2CCC(c3ccccc3)CC2)n1 [Compound 208] |  | 10.6 ± 1.5 | 27/53 | 28/50 | > 1000 |  |  | Number of cells having neurites with a length at least two times the diameter of each cell/total number of cells ([1]; 0.5 mM): 7.2 ± 2.3%; Number of cells having neurites with a length at least two times the diameter of each cell/total number of cells ([1]; 2 mM): 11.1 ± 1.2%; Number of cells having neurites with a length at least two times the diameter of each cell/total number of cells ([1]; 3 mM): 8.0 ± 4.0%; Number of cells in which neurites appeared/total number of cells ([2]; 24 hours, 0.25 mM): 17/51
8 | CN(C(=O)c1ccccc1)c1ccnc(N2CCCc3ccccc32)n1 [Compound 328] | 10.6 ± 3.4 |  | 32/50 | 12/51 | > 1000 | 10.2 ± 8.2 | 28.0 ± 6.8 | Number of cells having neurites with a length at least two times the diameter of each cell/total number of cells ([1]; 0.01 mM): 6.6 ± 0.5%; Number of cells in which neurites appeared/total number of cells ([2]; 48 hours, 0.025 mM): 8/50
9 | CN(C(=O)c1ccco1)c1nccc(N2CCC(c3ccccc3)CC2)n1 [Compound 684] |  |  | 2.50 |  | 500 to 1000 | 5.8 ± 2.0 | 16.4 ± 2.8 | Number of cells having neurites with a length at least two times the diameter of each cell/total number of cells ([1]; 0.01 mM): 3.8 ± 0.5%; Number of cells in which neurites appeared/total number of cells ([2]; 48 hours, 0.05 mM): 2/50
10 | CN(C(=O)c1ccccc1)c1ccnc(N2CCN(c3ccccc3)CC2)n1 [Compound 360] |  |  | 18/50 | 4/50 | > 1000 | 6.5 ± 0.7 | 10.0 ± 0.7 | Number of cells in which neurites appeared/total number of cells ([2]; 24 hours, 0.02 mM): 8/50
11 | CC(=O)N(C)c1cc(C)nc(N2CCC(c3ccccc3)CC2)n1 [Compound 392] | 30.9 ± 5.7 | 23.8 ± 4.2 | 8/50 | 3/43 | 500 to 1000 |  | 14.6 ± 6.0 | Number of cells having neurites with a length at least two times the diameter of each cell/total number of cells ([1]; 3 mM): 11.1 ± 9.7%; Number of cells in which neurites appeared/total number of cells ([2]; 48 hours, 0.05 mM): 6/51
12 | CN(C(=O)c1ccccc1)c1nccc(N2CCCCC2)n1 [Compound 604] | 24.6 ± 2.9 |  |  |  | < 500 |  | 18.7 ± 4.1 | Number of cells in which neurites appeared/total number of cells ([2]; 24 hours, 0.02 mM): 6/50; Number of cells in which neurites appeared/total number of cells ([2]; 24 hours, 0.4 mM): 7/50; Number of cells in which neurites appeared/total number of cells ([2]; 48 hours, 0.02 mM): 2/50
13 | CC1CCN(c2ccnc(N(C)C(=O)c3ccccc3)n2)CC1 [Compound 612] | 22.4 ± 2.4 |  | 2/50 | 2/50 | 500 to 1000 | 19.1 ± 3.0 | 19.4 ± 3.9 | Number of cells having neurites with a length at least two times the diameter of each cell/total number of cells ([1]; 0.01 mM): 13.8 ± 1.5%
14 | CN(C(=O)c1ccccc1)c1ccnc(N2CCC(c3ccccc3)CC2)n1 [Compound 170, 4-(N-methylbenzamino)-2-(4-phenylpiperidino)pyrimidine hydrochloride] |  |  |  |  |  |  |  | Number of cells having neurites with a length at least two times the diameter of each cell/total number of cells ([1]; 0.1 mM, hydrochloride): 33.5 ± 2.4%; Number of cells having neurites with a length at least two times the diameter of each cell/total number of cells ([1]; 0.3 mM, hydrochloride): 31.0 ± 4.6%; Estimated LD50 (mice): > 1000 mg/kg, i.p.
15 | CN(C(=O)C=Cc1ccccc1)c1ccnc(N2CCC(c3ccccc3)CC2)n1 [Compound 170-2] | 5.6 ± 2.1 | 13.9 ± 3.0 | 3/50 | 2/50 | 500 to 1000 |  | 14.7 ± 1.1 | 
16 | COC(=O)c1cnc(NC(C)C)nc1C.O=C(O)/C=C\C(=O)O [Compound 804, 2-isopropylamino-4-methyl-5-methoxycarbonylpyrimidine maleate] | 9.4 ± 1.3 | 26.1 ± 6.8 |  |  | 500 to 1000 |  |  | Number of cells having neurites with a length at least two times the diameter of each cell/total number of cells ([1]; 0.5 mM): 13.0 ± 2.1%; Number of cells having neurites with a length at least two times the diameter of each cell/total number of cells ([1]; 2 mM): 18.8 ± 3.1%; Number of cells in which neurites appeared/total number of cells ([2]; 24 hours, 0.25 mM): 8/55; Number of cells in which neurites appeared/total number of cells ([2]; 24 hours, 0.5 mM): 7/50; Number of cells in which neurites appeared/total number of cells ([2]; 48 hours, 0.25 mM): 8/50; Number of cells in which neurites appeared/total number of cells ([2]; 48 hours, 0.5 mM): 25/51
17 | CN(C(=O)c1ccccc1)c1ccnc(N2CCN(C(c3ccccc3)c3ccc(Cl)cc3)CC2)n1 (centres unmarked) [Compound 376] | 17.2 ± 1.4 | 16.4 ± 3.0 |  | 2/50 | 500 to 1000 | 13.6 ± 1.2 | 14.7 ± 1.5 | Number of cells in which neurites appeared/total number of cells ([2]; 24 hours, 0.2 mM): 2/50
